Test results taken from patent US9708314B2, “Heterocyclic amide compound” (NISSAN CHEMICAL INDUSTRIES, LTD., priority 2013, dated 2017).

Tests used:
Type in all cases: in vivo
[1] = test system: Zea mays; assay: Test Example 4: effect on crop by application to foliage (diluvial soil, plastic box); details: Application herbicide amount 320 g/ha; effect on crop
Outline: (§1)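 Seeds sown in sterilized diluvial soil, covered ~1.5 cm, grown 14 days in greenhouse at 25° C. to 30° C. Emulsion formulation diluted in water to set rate (g/ha) and sprayed onto stems and leaves. Effect scored visually 3 weeks later on 0–5 scale (5 = ≥90% herbicidal ratio, 0 = ≤5%).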

[2] = test system: directly sowed Oryza sativa; assay: as above; details: Application herbicide amount 320 g/ha; effect on crop
Outline: as §1

[3] = test system: Triticum aestivum; assay: as above; details: Application herbicide amount 320 g/ha; effect on crop
Outline: as §1

[4] = test system: Brassica campestris L.; assay: as above; details: Application herbicide amount 320 g/ha; effect on crop
Outline: as §1

[5] = test system: Beta vulgaris ssp. vulgaris; assay: as above; details: Application herbicide amount 320 g/ha; effect on crop
Outline: as §1

[6] = test system: Glycine max; assay: as above; details: Application herbicide amount 320 g/ha; effect on crop
Outline: as §1

[7] = test system: Echinochloa oryzacola Vasing.; assay: Test Example 2: herbicidal activity, application during weed generation in submerged conditions; details: Eighteenth Table; application herbicide amount 320 g/ha
Outline: (§2)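 Scored three weeks post-application on a 0–5 scale (5: ≥90% herbicidal ratio, almost withered; 0: ≤5%). Plants raised from mixed-sown seed in submerged alluvial soil (4 cm water), 25–30 °C greenhouse; water-diluted emulsion applied onto water surface at one- to two-leaf stage, dose in g/ha.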

[8] = test system: Scirpus juncoides; assay: as above; details: Eighteenth Table; application herbicide amount 320 g/ha
Outline: as §2

[9] = test system: Monochoria vaginalis; assay: as above; details: Eighteenth Table; application herbicide amount 320 g/ha
Outline: as §2

[10] = test system: Echinochloa crus-galli var. crus-galli; assay: Test Example 4: herbicidal effect by application to foliage (diluvial soil, plastic box); details: Application herbicide amount 320 g/ha
Outline: as §1

[11] = test system: Lolium multiflorum Lam.; assay: as above; details: Application herbicide amount 320 g/ha
Outline: as §1

[12] = test system: Abutilon theophrasti; assay: as above; details: Application herbicide amount 320 g/ha
Outline: as §1

[13] = test system: Apera spica-venti.; assay: as above; details: Application herbicide amount 320 g/ha
Outline: as §1

[14] = test system: Veronica persica; assay: as above; details: Application herbicide amount 320 g/ha
Outline: as §1

[15] = test system: Chenopodium album; assay: as above; details: Application herbicide amount 320 g/ha
Outline: as §1

[16] = test system: Avena fatua; assay: as above; details: Application herbicide amount 320 g/ha
Outline: as §1

[17] = test system: Alopecurus myosuroides; assay: as above; details: Application herbicide amount 320 g/ha
Outline: as §1

[18] = test system: Digitaria ciliaris; assay: as above; details: Application herbicide amount 320 g/ha
Outline: as §1

[19] = test system: Galium spurium; assay: as above; details: Application herbicide amount 320 g/ha
Outline: as §1

[20] = test system: Setaria viridis; assay: as above; details: Application herbicide amount 320 g/ha
Outline: as §1

Structure (SMILES)	b [1]	d [2]	e [3]	g [4]	f [5]	c [6]	A (Echinochloa oryzicola Vasing.) herbicidal ratio grade [7]	B (Scirpus juncoides) herbicidal ratio grade [8]	C (Monochoria vaginalis) herbicidal ratio grade [9]	H [10]	K [11]	M [12]	L [13]	R [14]	O [15]	I [16]	J [17]	F [18]	Q [19]	G [20]
Cc1nnc(NC(=O)c2ccc(C(F)(F)F)n3c(-c4ccc(Cl)nc4)nnc23)o1 [1-054]	0 (Herbicidal ratio of 5% or less (almost no effect))	3 (Herbicidal ratio of 40% or more and less than 70%)	3 (Herbicidal ratio of 40% or more and less than 70%)	4 (Herbicidal ratio of 70% or more and less than 90%)	4 (Herbicidal ratio of 70% or more and less than 90%)	1 (Herbicidal ratio of 5% or more and less than 20%)	4 (Herbicidal ratio of 70% or more and less than 90%)	3 (Herbicidal ratio of 40% or more and less than 70%)	3 (Herbicidal ratio of 40% or more and less than 70%)	5 (Herbicidal ratio of 90% or more (almost completely withered))	3 (Herbicidal ratio of 40% or more and less than 70%)	5 (Herbicidal ratio of 90% or more (almost completely withered))	3 (Herbicidal ratio of 40% or more and less than 70%)	5 (Herbicidal ratio of 90% or more (almost completely withered))	5 (Herbicidal ratio of 90% or more (almost completely withered))	3 (Herbicidal ratio of 40% or more and less than 70%)	3 (Herbicidal ratio of 40% or more and less than 70%)	5 (Herbicidal ratio of 90% or more (almost completely withered))	4 (Herbicidal ratio of 70% or more and less than 90%)	4 (Herbicidal ratio of 70% or more and less than 90%)
Cc1nnc(NC(=O)c2ccc(C(F)(F)F)n3c(CCS(C)(=O)=O)nnc23)o1 [1-085]	3 (Herbicidal ratio of 40% or more and less than 70%)	4 (Herbicidal ratio of 70% or more and less than 90%)	3 (Herbicidal ratio of 40% or more and less than 70%)	4 (Herbicidal ratio of 70% or more and less than 90%)	4 (Herbicidal ratio of 70% or more and less than 90%)	3 (Herbicidal ratio of 40% or more and less than 70%)	3 (Herbicidal ratio of 40% or more and less than 70%)	2 (Herbicidal ratio of 20% or more and less than 40%)	2 (Herbicidal ratio of 20% or more and less than 40%)	5 (Herbicidal ratio of 90% or more (almost completely withered))	3 (Herbicidal ratio of 40% or more and less than 70%)	5 (Herbicidal ratio of 90% or more (almost completely withered))	3 (Herbicidal ratio of 40% or more and less than 70%)	5 (Herbicidal ratio of 90% or more (almost completely withered))	5 (Herbicidal ratio of 90% or more (almost completely withered))	–	3 (Herbicidal ratio of 40% or more and less than 70%)	5 (Herbicidal ratio of 90% or more (almost completely withered))	4 (Herbicidal ratio of 70% or more and less than 90%)	5 (Herbicidal ratio of 90% or more (almost completely withered))
